The source made the active and inactive calls.
What was measured:
[1] = target: T1, Protein deacetylase HDAC6 (Homo sapiens) (UniProt Q9UBN7); assay: Induction of HDAC6 degradation in human RS4-11 cells at 0.5 to 10 uM incubated for 12 hrs by Western blotting analysis; type: cell-based; conditions: dose 0.5-10 µM
T1 sequence (whole entry): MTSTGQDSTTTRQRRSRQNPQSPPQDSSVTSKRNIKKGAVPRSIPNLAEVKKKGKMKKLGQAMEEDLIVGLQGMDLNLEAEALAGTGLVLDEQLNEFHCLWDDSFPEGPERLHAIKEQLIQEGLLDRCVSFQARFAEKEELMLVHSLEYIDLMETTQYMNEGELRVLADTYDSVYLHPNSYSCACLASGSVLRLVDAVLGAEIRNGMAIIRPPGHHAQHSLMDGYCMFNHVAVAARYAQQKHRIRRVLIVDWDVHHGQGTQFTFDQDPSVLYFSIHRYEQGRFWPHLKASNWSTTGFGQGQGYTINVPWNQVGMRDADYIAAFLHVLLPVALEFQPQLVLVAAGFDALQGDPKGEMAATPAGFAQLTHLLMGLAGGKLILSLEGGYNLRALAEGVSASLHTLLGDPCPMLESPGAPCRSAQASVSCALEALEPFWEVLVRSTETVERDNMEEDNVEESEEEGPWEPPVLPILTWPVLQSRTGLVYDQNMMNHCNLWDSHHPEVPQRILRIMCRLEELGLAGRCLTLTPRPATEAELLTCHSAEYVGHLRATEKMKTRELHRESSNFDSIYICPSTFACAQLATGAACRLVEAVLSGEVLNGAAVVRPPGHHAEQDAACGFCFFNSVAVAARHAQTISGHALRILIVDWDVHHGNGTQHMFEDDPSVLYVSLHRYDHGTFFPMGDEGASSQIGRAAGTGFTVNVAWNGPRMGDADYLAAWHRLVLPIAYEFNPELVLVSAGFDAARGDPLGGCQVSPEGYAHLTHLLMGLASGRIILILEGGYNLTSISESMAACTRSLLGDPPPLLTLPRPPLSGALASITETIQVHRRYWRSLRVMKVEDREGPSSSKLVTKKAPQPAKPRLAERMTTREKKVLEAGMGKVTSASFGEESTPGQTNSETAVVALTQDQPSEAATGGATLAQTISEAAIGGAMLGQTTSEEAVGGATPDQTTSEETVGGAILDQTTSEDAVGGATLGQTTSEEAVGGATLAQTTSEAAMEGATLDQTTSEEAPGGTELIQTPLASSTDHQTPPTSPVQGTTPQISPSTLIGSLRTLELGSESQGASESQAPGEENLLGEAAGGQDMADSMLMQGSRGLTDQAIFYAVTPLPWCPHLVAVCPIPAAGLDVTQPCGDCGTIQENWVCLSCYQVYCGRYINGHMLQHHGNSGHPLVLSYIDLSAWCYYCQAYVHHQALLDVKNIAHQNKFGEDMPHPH

[2] = target: Histone deacetylase 1 (Homo sapiens, UniProt Q13547); assay: Induction of HDAC1 degradation in human RS4-11 cells at 0.5 to 10 uM incubated for 12 hrs by Western blotting analysis; type: cell-based; conditions: dose 0.5-10 µM
Chain of Histone deacetylase 1 (Q13547 whole entry): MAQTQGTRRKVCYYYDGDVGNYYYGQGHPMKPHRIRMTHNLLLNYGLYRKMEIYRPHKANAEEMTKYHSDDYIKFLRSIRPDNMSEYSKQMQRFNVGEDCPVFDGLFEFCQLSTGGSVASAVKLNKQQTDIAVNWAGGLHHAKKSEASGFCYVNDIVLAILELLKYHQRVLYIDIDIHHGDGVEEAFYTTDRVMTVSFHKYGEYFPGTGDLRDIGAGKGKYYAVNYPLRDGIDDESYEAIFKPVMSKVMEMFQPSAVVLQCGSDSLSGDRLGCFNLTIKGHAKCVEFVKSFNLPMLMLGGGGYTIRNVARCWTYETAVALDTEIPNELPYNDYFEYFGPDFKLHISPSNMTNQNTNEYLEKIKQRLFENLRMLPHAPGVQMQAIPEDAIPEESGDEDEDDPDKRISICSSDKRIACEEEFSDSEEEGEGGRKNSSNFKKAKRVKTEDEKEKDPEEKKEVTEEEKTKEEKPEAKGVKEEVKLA

[3] = tested on: HeLa; assay: Antiproliferative activity against human HeLa cells assessed as cell growth inhibition at 5 uM incubated for 48 hrs by CCK-8 assay; type: functional, cell-based
[4] = tested on: A549; assay: Antiproliferative activity against human A549 cells assessed as cell growth inhibition at 5 uM incubated for 48 hrs by CCK-8 assay; type: functional, cell-based
[5] = tested on: HCT-116; assay: Antiproliferative activity against human HCT-116 cells assessed as cell growth inhibition at 5 uM incubated for 48 hrs by CCK-8 assay; type: functional, cell-based

Measured: Activity

O=C(CCCCCCCNc1cccc2c1C(=O)N(C1CCC(=O)NC1=O)C2=O)NCCS (stereo not given)
inactive: all assays above

O=C(CCCCCNc1cccc2c1C(=O)N(C1CCC(=O)NC1=O)C2=O)NO (stereo not given)
inactive: all assays above

Nc1cc(F)ccc1NC(=O)CCCCCCCNc1cccc2c1C(=O)N(C1CCC(=O)NC1=O)C2=O (stereo not given)
inactive: all assays above

Nc1ccccc1NC(=O)CCCCCCNc1cccc2c1C(=O)N(C1CCC(=O)NC1=O)C2=O (stereo not given)
inactive: all assays above

O=C1CCC(N2C(=O)c3cccc(NCCOCCOCCn4cc(C(=O)NO)nn4)c3C2=O)C(=O)N1 (stereo not given)
inactive: all assays above

Nc1cc(F)ccc1NC(=O)CCCCNc1cccc2c1C(=O)N(C1CCC(=O)NC1=O)C2=O (stereo not given)
inactive: all assays above

Nc1ccccc1NC(=O)c1cn(CCOCCNc2cccc3c2C(=O)N(C2CCC(=O)NC2=O)C3=O)nn1 (stereo not given)
inactive: all assays above

Nc1ccccc1NC(=O)CCCNc1cccc2c1C(=O)N(C1CCC(=O)NC1=O)C2=O (stereo not given)
inactive: all assays above

O=C1CCC(N2C(=O)c3cccc(NCCOCCn4cc(C(=O)NO)nn4)c3C2=O)C(=O)N1 (stereo not given)
inactive: all assays above

O=C(CCCNc1cccc2c1C(=O)N(C1CCC(=O)NC1=O)C2=O)NCCS (stereo not given)
inactive: all assays above

Nc1cc(F)ccc1NC(=O)c1cn(CCOCCOCCNc2cccc3c2C(=O)N(C2CCC(=O)NC2=O)C3=O)nn1 (stereo not given)
inactive: all assays above

O=C(CCCCCCCNc1cccc2c1C(=O)N(C1CCC(=O)NC1=O)C2=O)NO (stereo not given)
inactive: all assays above

Nc1cc(F)ccc1NC(=O)c1cn(CCOCCOCCOCCNc2cccc3c2C(=O)N(C2CCC(=O)NC2=O)C3=O)nn1 (stereo not given)
inactive: all assays above

CCCNNC(=O)c1ccc(CNc2cccc3c2C(=O)N(C2CCC(=O)NC2=O)C3=O)cc1 (stereo not given)
inactive: all assays above

O=C(CCCNc1cccc2c1C(=O)N(C1CCC(=O)NC1=O)C2=O)NO (stereo not given)
inactive: all assays above

Nc1cc(F)ccc1NC(=O)CCCCCNc1cccc2c1C(=O)N(C1CCC(=O)NC1=O)C2=O (stereo not given)
inactive: all assays above

CCNNC(=O)c1ccc(CNc2cccc3c2C(=O)N(C2CCC(=O)NC2=O)C3=O)cc1 (stereo not given)
inactive: all assays above

O=C(CCCCCNc1cccc2c1C(=O)N(C1CCC(=O)NC1=O)C2=O)NCCS (stereo not given)
inactive: all assays above

Nc1cc(F)ccc1NC(=O)c1cn(CCOCCNc2cccc3c2C(=O)N(C2CCC(=O)NC2=O)C3=O)nn1 (stereo not given)
inactive: all assays above

Nc1cc(F)ccc1NC(=O)CCCNc1cccc2c1C(=O)N(C1CCC(=O)NC1=O)C2=O (stereo not given)
inactive: all assays above

O=C1CCC(N2C(=O)c3cccc(NCCOCCOCCn4cc(C(=O)NCCS)nn4)c3C2=O)C(=O)N1 (stereo not given)
inactive: all assays above

O=C1CCC(N2C(=O)c3cccc(NCc4ccc(C(=O)NO)cc4)c3C2=O)C(=O)N1 (stereo not given)
inactive: all assays above

CCNNC(=O)CCCCCCNc1cccc2c1C(=O)N(C1CCC(=O)NC1=O)C2=O (stereo not given)
inactive: all assays above

O=C(CCCCNc1cccc2c1C(=O)N(C1CCC(=O)NC1=O)C2=O)NCCS (stereo not given)
inactive: all assays above

O=C(CCCCCCNc1cccc2c1C(=O)N(C1CCC(=O)NC1=O)C2=O)NCCS (stereo not given)
inactive: all assays above
